According to US20240247048A1 (EMORY UNIVERSITY, priority 2021, published 2024):

Test system: KPC-Luc tumors
Experiment: subcutaneous KPC / KPC-Luc pancreatic tumors in C57BL/6 mice
Type: in vivo, mouse
Experimental: Shown are scrambled peptide plus IgG, Ant308 plus anti-PD1, scrambled peptide plus anti-PD-1, Ant308 plus IgG, and Ant308 plus AMD3100. Tumor volume was measured with calipers. ‘Star’ (*) indicates mice euthanized either due to large tumor volume (>500 mm^3) or ulceration of the skin overlying the tumor.
This decease in tumor volume was more pronounced in combination with anti-PD1 treatment. We also examined the effect of ANT308 in combination with Iso IgG or anti-PD1 antibody had on tumor volume as measured as a percent change in volume (FIG. 8A) and in measured volume (FIG. 8B). […] Investigating this effect more completely, we observed that combination treatment with both anti-PD1 and VIP-R antagonist was able to slow tumor growth relative to control mice treated with scrambled peptide and iso-type matched IgG, with the combination showing a statistically significant improvement in the rate of tumor growth (FIG. 8D). […]
In vivo efficacy studies. […] In the KPC-Luc models, the tumor growth rate was plotted using the tumor flux measurements quantified using IVIS bioluminescent imaging. […] In experiments with subcutaneous tumors, Vernier calipers were used to measure the tumor dimensions and the tumor volume was calculated using the formula: tumor volume=½(length×width×height).

KPRRPYTSDYTRLRKQMAVKKYLNLILN [ANT308]
growth of tumors compared with control mice (scrambled peptide and isotype-matched IgG) (FIG. 9): not statistically different | tumor volume (day 22, 3 days after a 10-day course, FIG. 7): reduced tumor volume
